Results: US20180346505A1, “MONONUCLEOTIDES HAVING A BIOREVERSIBLE DISULFIDE GROUP” (priority 2014, published 2018)
“And” between values parts separate entries of the source, which are not always exact repeats. Identical values can stand only once.

Assays:
GT1a (H77) HCV replicon = test: HCV replicon assay, wild type GT1a (H77), luciferase based, stable format; format: cell-based, hepatitis C virus; conditions: Hepatitis C virus, GT1A, Huh-7, 72 h, Huh-7 cells
Description: (§1) The antiviral activity of the test compounds was assessed in the wild type GT1b (Con1), GT1a (H77), and GT1b/2a, GT1b/3a, GT1b/4a and GT1b/5a NS5B chimeric replicons, as well as the NS5B mutant replicons listed in Table 2a and 2b.
(§2) All the replicon assays were luciferase based in Huh-7 cells, either in stable format (GT1b and GT1a) or by transient transfection by electroporation (chimeric and mutant replicons). For a standard HCV replicon assay, stable or transiently transfected Huh-7 cells were seeded in 96-well plates (5,000 cells/well), cultured in DMEM containing 10% FBS, and incubated at 37° C., 5% CO2. On the following day, test compounds were diluted with assay media and added to the appropriate wells (final DMSO concentration in the cell culture medium was 0.5%). Assay reference positive control was included in each run to ensure assay performance. Cells were incubated at 37° C., 5% CO2 for 72 hours, at which time the cells were still sub-confluent. The antiviral activity was determined by measuring replicon reporter firefly luciferase activity using Bright Glo kit in accordance with the protocol provided by the supplier (Promega). The toxicity of the test compounds was assessed by CytoTox-1 cell proliferation assay (Promega). The half maximal effective concentration (EC50) and the half maximal toxic concentration (TC50) values were calculated using the GraphPad Prism software.

GT1b (Con1) HCV replicon = test: HCV replicon assay, wild type GT1b (Con1), luciferase based, stable format; format: cell-based, hepatitis C virus; conditions: Huh-7 cells, 72 hours
Description: as §1, §2

[1] = system: GT1b/2a NS5B chimeric replicon; test: HCV replicon assay, GT1b/2a NS5B chimeric replicon, transient transfection; format: cell-based, hepatitis C virus; conditions: Hepatitis C virus, Huh-7, 72 h, read-out: GT2a EC50, GT1b/2a NS5B chimeric replicon, Huh-7 cells, luciferase, 72 hours
Description: as §1
(§3) To generate HCV NS5B chimeric replicons, the GT1 b replicon was used as a backbone with the NS5B gene replaced with the NS5B gene of GT2a, GT3a, GT4a and GT5a derived from clinical isolates. These NS5B genes were cloned into the GT1b backbone and were confirmed by sequencing.
as §2

[2] = system: GT1b/3a NS5B chimeric replicon; test: HCV replicon assay, GT1b/3a NS5B chimeric replicon, transient transfection; format: cell-based, hepatitis C virus; conditions: read-out: GT3a EC50; GT1b/3a NS5B chimeric replicon, Huh-7 cells, luciferase, 72 hours
Description: as §1, §3, §2

[3] = system: GT1b/4a NS5B chimeric replicon; test: HCV replicon assay, GT1b/4a NS5B chimeric replicon, transient transfection; format: cell-based, hepatitis C virus; conditions: Hepatitis C virus, Huh-7, 72 h, read-out: GT4a EC50, GT1b/4a NS5B chimeric replicon, Huh-7 cells, luciferase, 72 hours
Description: as §1, §3, §2

[4] = system: GT1b/5a NS5B chimeric replicon; test: HCV replicon assay, GT1b/5a NS5B chimeric replicon, transient transfection; format: cell-based, hepatitis C virus; conditions: Hepatitis C virus, Huh-7, 72 h, read-out: GT5a EC50, GT1b/5a NS5B chimeric replicon, Huh-7 cells, luciferase, 72 hours
Description: as §1, §3, §2

Huh-7 cells = test: Toxicity by CytoTox-1 cell proliferation assay (TC50) and selectivity index; format: cell-based; conditions: TC50 by CytoTox-1 cell proliferation assay over replicon EC50, Huh-7 cells
Description: as §2

[5] = system: GT1a S282T NS5B mutant replicon; test: HCV NS5B mutant replicon assay, GT1a S282T; format: cell-based; conditions: Hepatitis C virus, Huh-7, 72 h, read-out: GT1a S282T EC50
Description: as §1
(§4) The HCV replicon mutants were generated by site-directed mutagenesis (SDM). The SDM was performed by PCR and the PCR fragments were inserted into the backbone replicon construct. The inserted PCR fragments and the mutants were confirmed by sequencing.
as §2

[6] = system: GT1a L159F NS5B mutant replicon; test: HCV NS5B mutant replicon assay, GT1a L159F; format: cell-based; conditions: Hepatitis C virus, Huh-7, 72 h, read-out: GT1a L159F EC50
Description: as §1, §4, §2

[7] = system: GT1b S282T NS5B mutant replicon; test: HCV NS5B mutant replicon assay, GT1b S282T; format: cell-based; conditions: Hepatitis C virus, Huh-7, 72 h, read-out: GT1b S282T EC50
Description: as §1, §4, §2

[8] = system: GT1b S96T NS5B mutant replicon; test: HCV NS5B mutant replicon assay, GT1b S96T; format: cell-based; conditions: Hepatitis C virus, Huh-7, 72 h, read-out: GT1b S96T EC50
Description: as §1, §4, §2

[9] = system: GT1b L159F NS5B mutant replicon; test: HCV NS5B mutant replicon assay, GT1b L159F; format: cell-based; conditions: Hepatitis C virus, Huh-7, 72 h, read-out: GT1b L159F EC50
Description: as §1, §4, §2

[10] = system: GT1b C316N NS5B mutant replicon; test: HCV NS5B mutant replicon assay, GT1b C316N; format: cell-based; conditions: Hepatitis C virus, Huh-7, 72 h, read-out: GT1b C316N EC50
Description: as §1, §4, §2

[11] = system: GT3a S282T NS5B mutant replicon; test: HCV NS5B mutant replicon assay, GT3a S282T; format: cell-based; conditions: Hepatitis C virus, Huh-7, 72 h, read-out: GT3a S282T EC50
Description: as §1, §3, §4, §2

[12] = system: GT3a L159F NS5B mutant replicon; test: HCV NS5B mutant replicon assay, GT3a L159F; format: cell-based; conditions: Hepatitis C virus, Huh-7, 72 h, read-out: GT3a L159F EC50
Description: as §1, §3, §4, §2

[13] = system: GT3a V321A NS5B mutant replicon; test: HCV NS5B mutant replicon assay, GT3a V321A; format: cell-based; conditions: Hepatitis C virus, Huh-7, 72 h, read-out: GT3a V321A EC50
Description: as §1, §3, §4, §2

[14] = Nucleoside phosphoester stability in simulated gastric fluid; format: in vitro ADME; conditions: simulated gastric fluid pH 1.2, 2 μM, 37° C.
Description: Test compounds at 2 μM were incubated at 37° C. with simulated gastric fluid (SGF, 0.2% (w/v) sodium chloride in 0.7% (v/v) hydrochloric acid, deionized water, 0.3% pepsin (w/v), pH 1.2). Duplicate samples were used. Samples were removed at 0, 15, 30, 60, 120, 360 and 1440 min, immediately mixed with cold acetonitrile containing internal standard (IS), and stored at −80° C. before analysis. Omeprazole was used as a positive control. Samples were analyzed by LC/MS/MS method, and disappearance of test compound was assessed by comparison of peak area ratios of analyte/IS and reported as % test compound remaining at each time point.

[15] = Nucleoside phosphoester stability in simulated intestinal fluid; format: in vitro ADME; conditions: simulated gi fluid, 2 μM, pH 6.8
Description: Test compounds at 2 μM were incubated at 37° C. with simulated intestinal fluid (SIF), which contains 0.68% (w/v) monobasic potassium phosphate and 1% (w/v) pancreatin in ultra-pure water (pH 6.8). Duplicate samples were used. Samples were removed at 0, 15, 30, 60, 120, 360 and 1440 min, immediately mixed with cold acetonitrile containing an internal standard (IS), and stored at −80° C. before analysis. Chlorambucil was used as a positive control. Samples were analyzed by a LC/MS/MS method, and disappearance of test compound was assessed by comparison of peak area ratios of analyte/IS and reported as % test compound remaining at each time point.

SMILES: CC(C)(C)SSc1ccccc1CCOP1(=O)OC[C@H]2O[C@@H](n3ccc(N)nc3=O)[C@](C)(F)[C@@H]2O1 (single isomer, unassigned) [Compound 9A]
- EC50 (GT1a (H77) HCV replicon): 3 to 6 nM
- EC50 (GT1b (Con1) HCV replicon): 7 nM and 4 to 5 nM
- EC50 [1]: 3 nM
- EC50 [2]: 6 nM and 4 to 6 nM
- EC50 [3]: 3 nM
- EC50 [4]: 2 nM
- Selectivity Index (TC50/EC50) (Huh-7 cells): >500
- EC50 [5]: 6 to 35 nM
- EC50 [6]: 10 nM
- EC50 [7]: 23 to 25 nM
- EC50 [8]: 7 nM
- EC50 [9]: 9 nM
- EC50 [10]: 4 nM
- EC50 [11]: 6 to 18 nM
- EC50 [12]: 8 nM
- EC50 [13]: 12 nM
- % Remaining ([14]; 0 min): 100.00%
- % Remaining ([14]; 15 min): 107.89%
- % Remaining ([14]; 30 min): 102.51%
- % Remaining ([14]; 60 min): 97.63%
- % Remaining ([14]; 120 min): 94.89%
- % Remaining ([14]; 360 min): 91.06%
- % Remaining ([14]; 1440 min): 76.22%
- % Remaining ([15]; 0 h): 100.00%
- % Remaining ([15]; 0.25 h): 99.21%
- % Remaining ([15]; 0.5 h): 103.81%
- % Remaining ([15]; 1 h): 103.14%
- % Remaining ([15]; 2 h): 109.48%
- % Remaining ([15]; 6 h): 101.64%
- % Remaining ([15]; 24 h): 98.27%
